US12052991B2, “Substituted pyridinyloxybenzenes and salts thereof and use thereof as herbicidal agents” (Bayer Aktiengesellschaft, priority 2018, dated 2024)

Experiments:
Type in all cases: in vivo
[1] = test system: Alopecurus myosuroides (ALOMY); assay: Herbicidal post-emergence action (Table B9); conditions: rated visually after about 3 weeks, 100% = plants have died, 0% = like control plants
How it was run: (§1)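 Activity was scored visually against untreated plants roughly 3 weeks after treatment, 0% meaning like control and 100% plant death. Application was post-emergence onto green parts at the one-leaf stage, as aqueous suspension/emulsion with 0.5% additive, 600 l/ha, delivering 1280 or 320 g/ha to greenhouse plants in sandy loam.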

Setaria viridis (SETVI) [2] = assay: Herbicidal post-emergence action (Table B4); conditions: 1280 g/ha; rated visually after about 3 weeks; 100% = plants have died, 0% = like control plants
How it was run: as §1

Veronica persica (VERPE) [3] = assay: Herbicidal pre-emergence action, test C (Table C12); conditions: visual scoring vs untreated controls
How it was run: (§2)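 Application rates of 1280 or 320 g/ha were delivered as WP or EC formulations in water with 0.5% additive, 600 L/ha, onto soil covering freshly sown seeds in sandy loam. Pots stayed under good greenhouse growth conditions, and efficacy was rated as visual percent after about 3 weeks.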

Stellaria media (STEME) [4] = assay: Herbicidal pre-emergence action, test C (Table C8); conditions: visual scoring after about 3 weeks, 100% = plants have died, 0% = like control plants
How it was run: as §2

[5] = test system: Echinochloa crus-galli (ECHCG); assay: Herbicidal post-emergence action (Table B1); conditions: rated visually after about 3 weeks, 100% = plants have died, 0% = like control plants
How it was run: as §1

Poa annua (POAAN) [6] = assay: Herbicidal post-emergence action (Table B3); conditions: rated visually after about 3 weeks, 100% = plants have died, 0% = like control plants
How it was run: as §1

[7] = test system: Digitaria sanguinalis (DIGSA); assay: Herbicidal post-emergence action (Table B10); conditions: visual rating about 3 weeks after treatment, 100% = plants have died, 0% = like control plants
How it was run: as §1

[8] = test system: Echinochloa crus-galli (ECHCG); assay: Herbicidal pre-emergence action, test C (Table C1); conditions: dosage 1280 g/ha; visual scoring after about 3 weeks; 100% = plants have died, 0% = like control plants
How it was run: as §2

[9] = test system: harmful plants ABUTH, AMARE, ECHCG, LOLRI, MATIN, POAAN, SETVI, STEME, ALOMY, DIGSA, KCHSC and VERPE; assay: Herbicidal pre-emergence action (test C), summary of Tables C1-C12; conditions: application rate of 1280 or 320 g of active ingredient per hectare; summary in words
How it was run: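 Visual % damage versus untreated plants (0% = like control, 100% = died) was scored after about 3 weeks in the greenhouse. Before emergence, seeds sown in sandy loam got a soil-surface spray of compound as WP or EC plus 0.5% additive, using 600 L/ha water at rates of 1280 or 320 g/ha.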

Bassia scoparia (KCHSC) [10] = assay: Herbicidal post-emergence action (Table B11); conditions: visual rating about 3 weeks after treatment, 100% = plants have died, 0% = like control plants
How it was run: as §1

Poa annua (POAAN) [11] = assay: Herbicidal pre-emergence action, test C (Table C3); conditions: visual scoring after about 3 weeks, 100% = plants have died, 0% = like control plants
How it was run: as §2

[12] = test system: Amaranthus retroflexus (AMARE); assay: Herbicidal pre-emergence action, test C (Table C6); conditions: visual scoring after about 3 weeks, 100% = plants have died, 0% = like control plants
How it was run: as §2

Stellaria media (STEME) [13] = assay: Herbicidal post-emergence action (Table B8); conditions: visual rating about 3 weeks after treatment, 100% = plants have died, 0% = like control plants
How it was run: as §1

[14] = test system: Digitaria sanguinalis (DIGSA); assay: Herbicidal pre-emergence action, test C (Table C10); conditions: visual scoring after about 3 weeks, 100% = plants have died, 0% = like control plants
How it was run: as §2

[15] = test system: Matricaria inodora (MATIN); assay: Herbicidal post-emergence action (Table B7); conditions: rated visually after about 3 weeks, 100% = plants have died, 0% = like control plants
Procedure: Seeds of mono- and dicotyledonous weed plants were placed in plastic pots in sandy loam soil (doubly sown with in each case one species of mono- or dicotyledonous weed plants per pot), covered with soil and cultivated in a greenhouse under controlled growth conditions. 2 to 3 weeks after sowing, the test plants were treated at the one-leaf stage. The compounds of the invention, formulated in the form of wettable powders (WP) or as emulsion concentrates (EC), were applied onto the green parts of the plants as aqueous suspension or emulsion with addition of 0.5% additive at a water application rate of 600 liters per hectare (converted). After the test plants had been kept in the greenhouse under optimum growth conditions for about 3 weeks, the activity of the preparations was rated visually in comparison to untreated controls. For example, 100% activity=the plants have died, 0% activity=like control plants. Tables B1 to B12 below show the effects of selected compounds of the general formula (I) according to Table 1 on various harmful plants and an application rate corresponding to 1280 or 320 g/ha, which were obtained by the experimental procedure mentioned above.

Setaria viridis (SETVI) [16] = assay: Herbicidal pre-emergence action, test C (Table C4); conditions: visual scoring after about 3 weeks, 100% = plants have died, 0% = like control plants
How it was run: as §2

[17] = test system: Alopecurus myosuroides (ALOMY); assay: Herbicidal pre-emergence action, test C (Table C9); conditions: visual scoring after about 3 weeks, 100% = plants have died, 0% = like control plants
How it was run: as §2

[18] = test system: Amaranthus retroflexus (AMARE); assay: Herbicidal post-emergence action (Table B6); conditions: visual rating about 3 weeks after treatment, 100% = plants have died, 0% = like control plants
How it was run: as §1

[19] = test system: Abutilon theophrasti (ABUTH); assay: Herbicidal post-emergence action (Table B5); conditions: rated visually after about 3 weeks, 100% = plants have died, 0% = like control plants
How it was run: as §1

Lolium rigidum (LOLRI) = assay: Herbicidal pre-emergence action, test C (Table C2); conditions: visual scoring after about 3 weeks, 100% = plants have died, 0% = like control plants
How it was run: as §2

[20] = test system: harmful plants ABUTH, AMARE, ECHCG, LOLRI, MATIN, POAAN, SETVI, STEME, ALOMY, DIGSA, KCHSC and VERPE; assay: Herbicidal post-emergence action, summary of Tables B1-B12; conditions: application rate of 1280 or 320 g of active ingredient per hectare; summary in words
How it was run: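 Activity scored by eye roughly 3 weeks post-treatment against untreated plants, from 0% (no effect) to 100% (plants dead). Application rates were 1280 or 320 g/ha, as aqueous WP/EC spray plus 0.5% additive at 600 L/ha, onto one-leaf-stage weeds grown 2–3 weeks in sandy loam.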

[21] = test system: Matricaria inodora (MATIN); assay: Herbicidal pre-emergence action, test C (Table C7); conditions: visual scoring after about 3 weeks, 100% = plants have died, 0% = like control plants
How it was run: as §2

[22] = test system: Abutilon theophrasti (ABUTH); assay: Herbicidal pre-emergence action, test C (Table C5); conditions: dosage 1280 g/ha; visual scoring after about 3 weeks; 100% = plants have died, 0% = like control plants
How it was run: as §2

Bassia scoparia (KCHSC) [23] = assay: Herbicidal pre-emergence action, test C (Table C11); conditions: dosage 1280 g/ha, visual scoring vs untreated controls
How it was run: as §2

Veronica persica (VERPE) [24] = assay: Herbicidal post-emergence action (Table B12); conditions: visual rating about 3 weeks after treatment, 100% = plants have died, 0% = like control plants
How it was run: as §1

| SMILES | Post-emergence action against Alopecurus myosuroides (ALOMY) ([1]; 1280 g/ha) [%] | Pre-emergence action against Veronica persica (VERPE) (Veronica persica (VERPE) [3]; dosage 1280 g/ha) [%] | Pre-emergence action against Stellaria media (STEME) (Stellaria media (STEME) [4]; dosage 320 g/ha) [%] | Pre-emergence action against Stellaria media (STEME) (Stellaria media (STEME) [4]; dosage 1280 g/ha) [%] | Post-emergence action against Poa annua (POAAN) (Poa annua (POAAN) [6]; 320 g/ha) [%] | Post-emergence action against Poa annua (POAAN) (Poa annua (POAAN) [6]; 1280 g/ha) [%] | Post-emergence action against Digitaria sanguinalis (DIGSA) ([7]; dosage 1280 g/ha) [%] | herbicidal activity against the harmful plants of Tables C1-C12 in pre-emergence treatment [9] | Post-emergence action against Bassia scoparia (KCHSC) (Bassia scoparia (KCHSC) [10]; dosage 320 g/ha) [%] | Post-emergence action against Bassia scoparia (KCHSC) (Bassia scoparia (KCHSC) [10]; dosage 1280 g/ha) [%] | Pre-emergence action against Poa annua (POAAN) (Poa annua (POAAN) [11]; dosage 320 g/ha) [%] | Pre-emergence action against Poa annua (POAAN) (Poa annua (POAAN) [11]; dosage 1280 g/ha) [%] | Pre-emergence action against Amaranthus retroflexus (AMARE) ([12]; dosage 320 g/ha) [%] | Pre-emergence action against Amaranthus retroflexus (AMARE) ([12]; dosage 1280 g/ha) [%] | Post-emergence action against Stellaria media (STEME) (Stellaria media (STEME) [13]; dosage 1280 g/ha) [%] | Pre-emergence action against Digitaria sanguinalis (DIGSA) ([14]; dosage 1280 g/ha) [%] | Post-emergence action against Matricaria inodora (MATIN) ([15]; 1280 g/ha) [%] | Pre-emergence action against Setaria viridis (SETVI) (Setaria viridis (SETVI) [16]; dosage 320 g/ha) [%] | Pre-emergence action against Setaria viridis (SETVI) (Setaria viridis (SETVI) [16]; dosage 1280 g/ha) [%] | Pre-emergence action against Alopecurus myosuroides (ALOMY) ([17]; dosage 1280 g/ha) [%] | also measured |
| --- | --- | --- | --- | --- | --- | --- | --- | --- | --- | --- | --- | --- | --- | --- | --- | --- | --- | --- | --- | --- | --- |
| FC(F)c1cc(-c2c(Br)cccc2Oc2ccc(Cl)cn2)on1 [Example 1-53] | 100 | 100 | 100 | 100 | 100 | 100 | 100 | very good herbicidal activity | 90 | 100 | 100 | 100 | 100 | 100 | 90 | 100 | 100 | 100 | 100 | 100 | Post-emergence action against Setaria viridis (SETVI) (Setaria viridis (SETVI) [2]): 100%; Pre-emergence action against Veronica persica (VERPE) (Veronica persica (VERPE) [3]; dosage 320 g/ha): 100%; Post-emergence action against Echinochloa crus-galli (ECHCG) ([5]; 320 g/ha): 100%; Post-emergence action against Echinochloa crus-galli (ECHCG) ([5]; 1280 g/ha): 100%; Post-emergence action against Digitaria sanguinalis (DIGSA) ([7]; dosage 320 g/ha): 100%; Pre-emergence action against Echinochloa crus-galli (ECHCG) [8]: 90%; Pre-emergence action against Alopecurus myosuroides (ALOMY) ([17]; dosage 320 g/ha): 100%; Post-emergence action against Amaranthus retroflexus (AMARE) ([18]; dosage 320 g/ha): 100%; Post-emergence action against Amaranthus retroflexus (AMARE) ([18]; dosage 1280 g/ha): 100%; Post-emergence action against Abutilon theophrasti (ABUTH) ([19]; 320 g/ha): 100%; Post-emergence action against Abutilon theophrasti (ABUTH) ([19]; 1280 g/ha): 100%; Pre-emergence action against Lolium rigidum (LOLRI) (Lolium rigidum (LOLRI); dosage 320 g/ha): 90%; Pre-emergence action against Lolium rigidum (LOLRI) (Lolium rigidum (LOLRI); dosage 1280 g/ha): 100%; herbicidal activity against the harmful plants of Tables B1-B12 in post-emergence treatment [20]: very good herbicidal activity; Pre-emergence action against Matricaria inodora (MATIN) ([21]; dosage 320 g/ha): 100%; Pre-emergence action against Matricaria inodora (MATIN) ([21]; dosage 1280 g/ha): 100% |
| Cc1cc(F)c(-c2cc(C(F)F)no2)c(Oc2ncc(Cl)cc2F)c1 [Example 1-89] | 100 | 90 | 90 | 90 | 100 | 100 | 100 | very good herbicidal activity | 90 | 100 | 90 | 100 | 100 | 100 | 100 | 100 | 100 | 100 | 100 | 100 | Post-emergence action against Alopecurus myosuroides (ALOMY) ([1]; 320 g/ha): 100%; Pre-emergence action against Abutilon theophrasti (ABUTH) [22]: 90%; Pre-emergence action against Bassia scoparia (KCHSC) (Bassia scoparia (KCHSC) [23]): 90%; Post-emergence action against Veronica persica (VERPE) (Veronica persica (VERPE) [24]; dosage 320 g/ha): 100%; Post-emergence action against Veronica persica (VERPE) (Veronica persica (VERPE) [24]; dosage 1280 g/ha): 100%; Post-emergence action against Stellaria media (STEME) (Stellaria media (STEME) [13]; dosage 320 g/ha): 100%; Pre-emergence action against Digitaria sanguinalis (DIGSA) ([14]; dosage 320 g/ha): 90%; Post-emergence action against Matricaria inodora (MATIN) ([15]; 320 g/ha): 100%; Post-emergence action against Amaranthus retroflexus (AMARE) ([18]; dosage 320 g/ha): 100%; Post-emergence action against Amaranthus retroflexus (AMARE) ([18]; dosage 1280 g/ha): 100%; Post-emergence action against Abutilon theophrasti (ABUTH) ([19]; 320 g/ha): 100%; Post-emergence action against Abutilon theophrasti (ABUTH) ([19]; 1280 g/ha): 100%; herbicidal activity against the harmful plants of Tables B1-B12 in post-emergence treatment [20]: very good herbicidal activity; Pre-emergence action against Matricaria inodora (MATIN) ([21]; dosage 320 g/ha): 90%; Pre-emergence action against Matricaria inodora (MATIN) ([21]; dosage 1280 g/ha): 90% |
